Laboratory results taken from patent US20240368153A1, “Aminopyridine-based MTA-Cooperative PRMT5 Inhibitors” (Mirati Therapeutics, Inc., priority 2021, published 2024).

What was measured:
PRMT5/MEP50 complex [1] = target: T1, PRMT5/MEP50 complex (Homo sapiens (Human), UniProt O14744); experiment: PRMT5:MEP50 FlashPlate Assay; type: biochemical
Method in brief: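 3 nM human PRMT5/MEP50 pre-incubated 20 min at room temperature with compound and 40 nM biotinylated histone H4(1-15) peptide; reaction started with 1 μM ³H-SAM, run 20 min. Bound tritiated peptide counted by scintillation; IC50 from 10-point curves (top 50 μM) with and without MTA.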

PRMT5/MEP50 complex [2] = target: T1, PRMT5/MEP50 complex; experiment: PRMT5:MEP50 HotSpot Assay; type: biochemical; settings: read-out: IC50 + 2 μM MTA, full-length histone H2A, presence of 2 μM MTA
Method: The assay uses recombinant full-length histone H2A as the PRMT5 substrate. Enzymatic transfer of the tritiated methyl group from S-adenosyl-L-[methyl-3H]methionine to the histone H2A protein generated a radiolabeled histone […] in a scintillation counter to determine the activity of PRMT5 enzyme in the presence and absence of compound. […] Briefly, compounds of the present invention were solubilized in 100% DMSO at a highest concentration of 10 mM. […] Control samples lacking compound, PRMT5/MEP50 complex or various reaction components also were prepared and processed in parallel with compound test samples. SAH was used as a positive control for assay validation. To measure PRMT5 inhibitory activity. 1 nM PRMT5/MEP50 complex (Reaction Biology Corporation) was preincubated with test compound in assay buffer containing 5 μM full-length histone H2A for 20 min at room temperature. The enzymatic reaction was initiated by adding 1 μM tritiated S-adenosyl methionine (final concentration) and the reaction was allowed to proceed for 60 min. The reaction was stopped and transferred to filter paper for detection. The amount of tritiated H2A in each sample was determined using a scintillation counter.

[3] = target: PRMT5•SAM (biotinylated PRMT5-MEP50) (Homo sapiens (Human), UniProt O14744); experiment: SPR binding assay, SAM running buffer; settings: 20 μM SAM running buffer
Method: (§1) SPR screening was performed in MTA running buffer (25 mM Bicine pH 7.6, 100 mM NaCl, 1 mM TCEP, 20 μM MTA, 0.05% Tween-20 and 2% DMSO). The biotinylated PRMT5-MEP50 surface was equilibrated with MTA running buffer for 12 hours prior to the start. […] Subsequently, compound titration was repeated in SAM-running buffer (25 mM Bicine pH 7.6, 100 mM NaCl, 1 mM TCEP, 20 μM SAM, 0.05% Tween-20, and 2% DMSO). […] After double referencing, the steady-state response was extracted for each fragment concentration and was fit to the Langmuir isotherm equation to determine the equilibrium dissociation constant (KD).

[4] = target: PRMT5•MTA (biotinylated PRMT5-MEP50) (Homo sapiens (Human), UniProt O14744); experiment: SPR binding assay, MTA running buffer; settings: 20 μM MTA running buffer
Method: as §1

[5] = target: recombinant human dual expressed Avi PRMT5/His-MEP50 protein (Homo sapiens (Human), UniProt O14744); experiment: HTRF binding assay in presence of MTA; settings: 30 μM MTA
Method in brief: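 HTRF tracer-displacement binding using human Avi-PRMT5 (2-637)/His-MEP50 (2-342), baculovirus-expressed, with 30 μM MTA and 5 nM in-house tracer in 25 mM ADA pH 7.2, 1 mM TCEP, 50 mM NaCl, 0.002% Tween. Overnight at 2-8° C, then 0.5 nM anti-His-Tb 1 hr RT; 665/620 ratio ×10000.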

[6] = histone H4 peptide, absence of MTA, read-out: IC50
[7] = read-out: IC50 + 2 μM MTA, histone H4 peptide, presence of 2 μM MTA

T1 sequence (O14744 whole entry): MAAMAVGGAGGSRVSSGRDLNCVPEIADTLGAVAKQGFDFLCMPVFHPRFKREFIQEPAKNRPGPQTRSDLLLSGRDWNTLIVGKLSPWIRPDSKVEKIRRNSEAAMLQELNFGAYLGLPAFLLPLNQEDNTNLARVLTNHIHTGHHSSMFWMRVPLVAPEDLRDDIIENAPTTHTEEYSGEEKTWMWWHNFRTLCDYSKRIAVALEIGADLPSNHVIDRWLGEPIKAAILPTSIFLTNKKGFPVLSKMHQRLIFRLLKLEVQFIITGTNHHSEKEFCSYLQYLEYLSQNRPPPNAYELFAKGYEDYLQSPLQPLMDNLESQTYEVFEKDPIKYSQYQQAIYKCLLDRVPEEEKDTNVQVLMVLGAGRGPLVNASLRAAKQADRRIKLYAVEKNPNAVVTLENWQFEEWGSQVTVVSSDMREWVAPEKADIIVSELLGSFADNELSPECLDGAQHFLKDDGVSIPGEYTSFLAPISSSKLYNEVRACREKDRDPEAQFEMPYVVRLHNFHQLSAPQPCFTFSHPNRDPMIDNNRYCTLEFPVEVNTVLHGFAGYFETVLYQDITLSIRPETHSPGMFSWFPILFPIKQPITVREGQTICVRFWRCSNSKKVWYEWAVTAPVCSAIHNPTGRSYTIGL
T1 sequence (Q9BQA1 whole entry partner): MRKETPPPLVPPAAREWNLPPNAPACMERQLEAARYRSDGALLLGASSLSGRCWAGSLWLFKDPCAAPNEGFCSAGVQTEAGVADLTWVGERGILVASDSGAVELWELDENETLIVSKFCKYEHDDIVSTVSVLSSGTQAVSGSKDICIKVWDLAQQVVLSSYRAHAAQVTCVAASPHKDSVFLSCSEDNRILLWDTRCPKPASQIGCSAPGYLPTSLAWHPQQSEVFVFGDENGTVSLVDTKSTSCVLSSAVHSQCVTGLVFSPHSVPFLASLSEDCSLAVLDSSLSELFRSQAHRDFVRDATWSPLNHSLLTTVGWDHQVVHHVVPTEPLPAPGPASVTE
Chain of PRMT5•MTA (biotinylated PRMT5-MEP50) (O14744 whole entry): as the sequence (O14744 whole entry) above
Chain of PRMT5•MTA (biotinylated PRMT5-MEP50) (Q9BQA1 whole entry partner): as the sequence (Q9BQA1 whole entry partner) above
Chain of PRMT5•SAM (biotinylated PRMT5-MEP50) (O14744 whole entry, the tested form may be a part): as the sequence (O14744 whole entry) above
Chain of PRMT5•SAM (biotinylated PRMT5-MEP50) (Q9BQA1 whole entry partner, the tested form may be a part): as the sequence (Q9BQA1 whole entry partner) above
Chain of recombinant human dual expressed Avi PRMT5/His-MEP50 protein (O14744 2-637): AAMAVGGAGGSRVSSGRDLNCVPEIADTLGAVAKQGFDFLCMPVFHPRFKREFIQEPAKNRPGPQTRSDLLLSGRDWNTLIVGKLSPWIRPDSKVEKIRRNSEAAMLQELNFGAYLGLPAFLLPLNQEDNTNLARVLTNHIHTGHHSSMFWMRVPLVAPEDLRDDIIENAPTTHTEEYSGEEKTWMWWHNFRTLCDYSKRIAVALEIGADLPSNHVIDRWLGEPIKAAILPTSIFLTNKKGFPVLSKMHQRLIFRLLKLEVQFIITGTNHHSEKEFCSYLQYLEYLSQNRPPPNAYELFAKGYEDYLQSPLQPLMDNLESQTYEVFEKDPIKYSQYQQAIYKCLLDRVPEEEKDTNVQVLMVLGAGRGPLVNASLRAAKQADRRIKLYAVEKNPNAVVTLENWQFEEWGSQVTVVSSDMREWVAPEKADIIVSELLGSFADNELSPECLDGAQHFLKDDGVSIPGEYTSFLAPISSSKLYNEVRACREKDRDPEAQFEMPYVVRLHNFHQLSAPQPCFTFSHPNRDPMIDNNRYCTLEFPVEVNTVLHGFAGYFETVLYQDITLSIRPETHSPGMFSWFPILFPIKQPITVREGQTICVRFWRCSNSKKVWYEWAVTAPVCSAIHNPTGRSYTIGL
Chain of recombinant human dual expressed Avi PRMT5/His-MEP50 protein (Q9BQA1 2-342 partner): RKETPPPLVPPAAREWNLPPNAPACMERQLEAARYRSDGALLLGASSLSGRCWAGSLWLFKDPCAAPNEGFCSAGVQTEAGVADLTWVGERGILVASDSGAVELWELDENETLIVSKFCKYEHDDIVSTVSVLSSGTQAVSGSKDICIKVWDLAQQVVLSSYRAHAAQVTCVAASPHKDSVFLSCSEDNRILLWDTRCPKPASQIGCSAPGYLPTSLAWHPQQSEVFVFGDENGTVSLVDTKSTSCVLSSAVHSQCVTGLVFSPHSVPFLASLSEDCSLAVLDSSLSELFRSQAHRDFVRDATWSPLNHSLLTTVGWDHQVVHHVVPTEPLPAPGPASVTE

Row | SMILES | IC50 (PRMT5/MEP50 complex [1]; [6]) [nM] | IC50 (PRMT5/MEP50 complex [1]; [7]) [nM] | IC50 (PRMT5/MEP50 complex [2]) [nM] | Kd [3] [nM] | Kd [4] [nM] | IC50 [5] [nM]
1 | CC(=O)N(Cc1cc2nc(N)c(C)cc2[nH]1)c1ccc2ccccc2c1C#N [Example 14-2, N-[(5-amino-6-methyl-1H-pyrrolo[3,2-b]pyridin-2-yl)methyl]-N—(I-cyano-2-naphthyl)acetamide] | 798 | 1.72 | 553 | 1 | 1 | 2
2 | Cc1cc2[nH]c(CN3C(=O)c4ccccc4C3=O)cc2nc1N [Example 14-1, 2-((5-amino-6-methyl-1H-pyrrolo[3,2-b]pyridin-2-yl)methyl)isoindoline-1,3-dione] | 10100 | 12.1 | 626 | 6 | 1 | 7
